Measurements: patent US20250268884A1, “Deuterated Domperidone for Treating Gastroparesis” (CinDome Pharma, Inc., priority 2022, published 2025)

Tested on: adults with idiopathic or diabetic gastroparesis
Experiment: Safety: adverse events, laboratory values, vital signs, Phase 2a
Details: for Any Aes, % of subjects / Any Aes, n subjects / Any TEAEs by maximum severity: Mild, % of subjects / Any TEAEs by maximum severity: Mild, n subjects / Any TEAEs by maximum severity: Moderate, % of subjects / Any TEAEs by maximum severity: Moderate, n subjects / Any TEAEs by maximum severity: Severe, % of subjects / Any TEAEs by maximum severity: Severe, n subjects / Any TEAEs leading to death, % of subjects / Any TEAEs leading to death, n subjects / Any TEAEs leading to discontinuation, % of subjects / Any TEAEs leading to discontinuation, n subjects / Any TEAEs, % of subjects / Any TEAEs, e (number of events) / Any TEAEs, n subjects / Any serious TEAEs, % of subjects / Any serious TEAEs, n subjects / Any study drug-related TEAEs by maximum severity: Mild, % of subjects / Any study drug-related TEAEs by maximum severity: Mild, n subjects / Any study drug-related TEAEs by maximum severity: Moderate, % of subjects / Any study drug-related TEAEs by maximum severity: Moderate, n subjects / Any study drug-related TEAEs by maximum severity: Severe, % of subjects / Any study drug-related TEAEs by maximum severity: Severe, n subjects / Any study drug-related TEAEs leading to discontinuation, % of subjects / Any study drug-related TEAEs leading to discontinuation, n subjects / Any study drug-related TEAEs, % of subjects / Any study drug-related TEAEs, n subjects / Any study drug-related serious TEAEs, % of subjects / Any study drug-related serious TEAEs, n subjects / subjects who experienced a TEAE: Safety Population
Experimental: Safety was evaluated through assessments of Aes, vital signs, physical examinations, clinical laboratory evaluations (including prolactin), and ECG findings. Additionally, a single, optional PGx blood sample may have been collected at any time during the subject's participation in the study.
Safety variables included Aes, clinical laboratory results (including prolactin), vital signs, ECGs, and physical examination findings.

SMILES: [2H]c1c([2H])c([2H])c2c([nH]c(=O)n2CCCN2CCC(n3c(=O)[nH]c4cc(Cl)ccc43)CC2)c1[2H] [Deudomperidone, 1-{3-[4-(5-chloro-2-oxo-2,3-dihydro-1H-1,3-benzodiazol-1-yl)piperidin-1yl]propyl}-2,3-dihydro(4,5,6,7-D4)-1H-1,3-benzodiazol-2-one]
- TEAE Nausea, % (10 mg BID (N = 30)): (3.3) %
- TEAE Nervous system disorders, % (10 mg BID (N = 30)): (0.0) %
- TEAE Palpitations, % (10 mg BID (N = 30)): (3.3) %
- TEAE Sinusitis, % (10 mg BID (N = 30)): (0.0) %
- TEAE Tinnitus, % (10 mg BID (N = 30)): (3.3) %
- TEAE Vomiting, % (10 mg BID (N = 30)): (3.3) %
- Any Aes, % of subjects (10 mg BID (N = 30)): (23.3) %
- Any Aes, n subjects (10 mg BID (N = 30)): 7
- Any TEAEs by maximum severity: Mild, % of subjects (10 mg BID (N = 30)): (10.0) %
- Any TEAEs by maximum severity: Mild, n subjects (10 mg BID (N = 30)): 3
- Any TEAEs by maximum severity: Moderate, % of subjects (10 mg BID (N = 30)): (6.7) %
- Any TEAEs by maximum severity: Moderate, n subjects (10 mg BID (N = 30)): 2
- Any TEAEs by maximum severity: Severe, % of subjects (10 mg BID (N = 30)): (3.3) %
- Any TEAEs by maximum severity: Severe, n subjects (10 mg BID (N = 30)): 1
- Any TEAEs leading to death, % of subjects (10 mg BID (N = 30)): (0.0) %
- Any TEAEs leading to death, n subjects (10 mg BID (N = 30)): 0
- Any TEAEs leading to discontinuation, % of subjects (10 mg BID (N = 30)): (0.0) %
- Any TEAEs leading to discontinuation, n subjects (10 mg BID (N = 30)): 0
- Any TEAEs, % of subjects (10 mg BID (N = 30)): 20.0%
- Any TEAEs, e (number of events) (10 mg BID (N = 30)): 11
- Any TEAEs, n subjects (10 mg BID (N = 30)): 6
- Any serious TEAEs, % of subjects (10 mg BID (N = 30)): (0.0) %
- Any serious TEAEs, n subjects (10 mg BID (N = 30)): 0
- Any study drug-related TEAEs by maximum severity: Mild, % of subjects (10 mg BID (N = 30)): (13.3) %
- Any study drug-related TEAEs by maximum severity: Mild, n subjects (10 mg BID (N = 30)): 4
- Any study drug-related TEAEs by maximum severity: Moderate, % of subjects (10 mg BID (N = 30)): (0.0) %
- Any study drug-related TEAEs by maximum severity: Moderate, n subjects (10 mg BID (N = 30)): 0
- Any study drug-related TEAEs by maximum severity: Severe, % of subjects (10 mg BID (N = 30)): (0.0) %
- Any study drug-related TEAEs by maximum severity: Severe, n subjects (10 mg BID (N = 30)): 0
- Any study drug-related TEAEs leading to discontinuation, % of subjects (10 mg BID (N = 30)): (0.0) %
- Any study drug-related TEAEs leading to discontinuation, n subjects (10 mg BID (N = 30)): 0
- Any study drug-related TEAEs, % of subjects (10 mg BID (N = 30)): (13.3) %
- Any study drug-related TEAEs, n subjects (10 mg BID (N = 30)): 4
- Any study drug-related serious TEAEs, % of subjects (10 mg BID (N = 30)): (0.0) %
- Any study drug-related serious TEAEs, n subjects (10 mg BID (N = 30)): 0
- subjects who experienced a TEAE (10 mg BID): 6 (20.0%) subjects (%)
- TEAE diarrhoea (20 mg QD): 1 (6.7%) subjects (%)
- TEAE electrocardiogram QT prolonged (20 mg QD): 2 (13.3%) subjects (%)
- TEAE hypoglycaemia (20 mg QD): 1 (6.7%) subjects (%)
- TEAEs reported (20 mg QD): 8 TEAEs
- other TEAEs, each: constipation, dyspepsia, sinusitis, headache (20 mg QD): 1 subject each
- other study drug-related TEAE: headache (20 mg QD): 1 subject each
- study drug-related TEAE diarrhoea (20 mg QD): 1 (6.7%) subjects (%)
- study drug-related TEAE electrocardiogram QT prolonged (20 mg QD): 2 (13.3%) subjects (%)
- study drug-related TEAEs reported (20 mg QD): 4 TEAEs
- subjects with study drug-related TEAEs (20 mg QD): 4 (26.7) subjects (%)
- Study drug-related TEAE Abdominal pain lower, % (20 mg QD (N = 15)): (0.0) %
- Study drug-related TEAE Blood creatine phosphokinase increased, % (20 mg QD (N = 15)): (0.0) %
- Study drug-related TEAE Cardiac disorders, % (20 mg QD (N = 15)): (0.0) %
- Study drug-related TEAE Diarrhoea, % (20 mg QD (N = 15)): (6.7) %
- Study drug-related TEAE Ear and labyrinth disorders, % (20 mg QD (N = 15)): (0.0) %
- Study drug-related TEAE Electrocardiogram QT prolonged, % (20 mg QD (N = 15)): (13.3) %
- Study drug-related TEAE Gastrointestinal disorders, % (20 mg QD (N = 15)): (6.7) %
- Study drug-related TEAE Headache, % (20 mg QD (N = 15)): (6.7) %
- Study drug-related TEAE Investigations, % (20 mg QD (N = 15)): (13.3) %
- Study drug-related TEAE Nausea, % (20 mg QD (N = 15)): (0.0) %
- Study drug-related TEAE Nervous system disorders, % (20 mg QD (N = 15)): (6.7) %
- Study drug-related TEAE Palpitations, % (20 mg QD (N = 15)): (0.0) %
- Study drug-related TEAE Tinnitus, % (20 mg QD (N = 15)): (0.0) %
- Subjects with any TEAEs, % (20 mg QD (N = 15)): 40.0%
- Subjects with any TEAEs, e (events) (20 mg QD (N = 15)): 8
- Subjects with any study drug-related TEAE, % (20 mg QD (N = 15)): 26.7%
- Subjects with any study drug-related TEAE, e (events) (20 mg QD (N = 15)): 4
- TEAE Abdominal pain lower, % (20 mg QD (N = 15)): (0.0) %
- TEAE Arthralgia, % (20 mg QD (N = 15)): (0.0) %
- TEAE Back pain, % (20 mg QD (N = 15)): (0.0) %
- TEAE Blood creatine phosphokinase increased, % (20 mg QD (N = 15)): (0.0) %
- TEAE Cardiac disorders, % (20 mg QD (N = 15)): (0.0) %
- TEAE Constipation, % (20 mg QD (N = 15)): (6.7) %
- TEAE Decreased appetite, % (20 mg QD (N = 15)): (0.0) %
- TEAE Diarrhoea, % (20 mg QD (N = 15)): (6.7) %
- TEAE Dyspepsia, % (20 mg QD (N = 15)): (6.7) %
- TEAE Ear and labyrinth disorders, % (20 mg QD (N = 15)): (0.0) %
- TEAE Electrocardiogram QT prolonged, % (20 mg QD (N = 15)): (13.3) %
- TEAE Gastrointestinal disorders, % (20 mg QD (N = 15)): (13.3) %
- TEAE Headache, % (20 mg QD (N = 15)): (6.7) %
- TEAE Hypoglycaemia, % (20 mg QD (N = 15)): (6.7) %
- TEAE Infections and infestations, % (20 mg QD (N = 15)): (6.7) %
- TEAE Investigations, % (20 mg QD (N = 15)): (13.3) %
- TEAE Metabolism and nutrition disorders, % (20 mg QD (N = 15)): (6.7) %
- TEAE Musculoskeletal and connective tissue disorders, % (20 mg QD (N = 15)): (0.0) %
- TEAE Nausea, % (20 mg QD (N = 15)): (0.0) %
- TEAE Nervous system disorders, % (20 mg QD (N = 15)): (6.7) %
- TEAE Palpitations, % (20 mg QD (N = 15)): (0.0) %
- TEAE Sinusitis, % (20 mg QD (N = 15)): (6.7) %
- TEAE Tinnitus, % (20 mg QD (N = 15)): (0.0) %
- TEAE Vomiting, % (20 mg QD (N = 15)): (0.0) %
- Any Aes, % of subjects (20 mg QD (N = 15)): (40.0) %
- Any Aes, n subjects (20 mg QD (N = 15)): 6
- Any TEAEs by maximum severity: Mild, % of subjects (20 mg QD (N = 15)): (40.0) %
- Any TEAEs by maximum severity: Mild, n subjects (20 mg QD (N = 15)): 6
- Any TEAEs by maximum severity: Moderate, % of subjects (20 mg QD (N = 15)): (0.0) %
- Any TEAEs by maximum severity: Moderate, n subjects (20 mg QD (N = 15)): 0
- Any TEAEs by maximum severity: Severe, % of subjects (20 mg QD (N = 15)): (0.0) %
- Any TEAEs by maximum severity: Severe, n subjects (20 mg QD (N = 15)): 0
- Any TEAEs leading to death, % of subjects (20 mg QD (N = 15)): (0.0) %
- Any TEAEs leading to death, n subjects (20 mg QD (N = 15)): 0
- Any TEAEs leading to discontinuation, % of subjects (20 mg QD (N = 15)): (0.0) %
- Any TEAEs leading to discontinuation, n subjects (20 mg QD (N = 15)): 0
- Any TEAEs, % of subjects (20 mg QD (N = 15)): 40.0%
- Any TEAEs, e (number of events) (20 mg QD (N = 15)): 8
- Any TEAEs, n subjects (20 mg QD (N = 15)): 6
- Any serious TEAEs, % of subjects (20 mg QD (N = 15)): (0.0) %
- Any serious TEAEs, n subjects (20 mg QD (N = 15)): 0
- Any study drug-related TEAEs by maximum severity: Mild, % of subjects (20 mg QD (N = 15)): (26.7) %
- Any study drug-related TEAEs by maximum severity: Mild, n subjects (20 mg QD (N = 15)): 4
- Any study drug-related TEAEs by maximum severity: Moderate, % of subjects (20 mg QD (N = 15)): (0.0) %
- Any study drug-related TEAEs by maximum severity: Moderate, n subjects (20 mg QD (N = 15)): 0
- Any study drug-related TEAEs by maximum severity: Severe, % of subjects (20 mg QD (N = 15)): (0.0) %
- Any study drug-related TEAEs by maximum severity: Severe, n subjects (20 mg QD (N = 15)): 0
- Any study drug-related TEAEs leading to discontinuation, % of subjects (20 mg QD (N = 15)): (0.0) %
- Any study drug-related TEAEs leading to discontinuation, n subjects (20 mg QD (N = 15)): 0
- Any study drug-related TEAEs, % of subjects (20 mg QD (N = 15)): (26.7) %
- Any study drug-related TEAEs, n subjects (20 mg QD (N = 15)): 4
- Any study drug-related serious TEAEs, % of subjects (20 mg QD (N = 15)): (0.0) %
- Any study drug-related serious TEAEs, n subjects (20 mg QD (N = 15)): 0
- subjects who experienced a TEAE (20 mg QD): 6 (40.0%) subjects (%)
- severity of study drug-related TEAEs (all dose groups): mild in severity
- deaths, serious TEAEs, discontinuations due to a TEAE (all dose groups, 14 days): no deaths, serious TEAEs, or discontinuations due to a TEAE
- changes from baseline in laboratory parameters (over treatment period): no meaningful changes from baseline
